Experimental data reported in ChEMBL document CHEMBL1129058, “Indole inhibitors of human nonpancreatic secretory phospholipase A2. 2. Indole-3-acetamides with additional functionality” (J Med Chem, 1996).
Where “and” joins values, the source holds several entries; their conditions need not be identical. Identical values can stand only once.

How the values were obtained:
[1] = biological target: T1, Phospholipase A2, membrane associated (Homo sapiens, UniProt P14555); assay: Inhibition of human non-pancreatic secretory phospholipase A2 (PLA2) in a chromogenic assay
T1 sequence (P14555 whole entry): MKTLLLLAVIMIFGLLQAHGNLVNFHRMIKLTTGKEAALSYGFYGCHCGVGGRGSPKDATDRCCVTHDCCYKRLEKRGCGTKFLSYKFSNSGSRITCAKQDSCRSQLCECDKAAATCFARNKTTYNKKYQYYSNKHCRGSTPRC

[2] = biological target: T2, Phospholipase A2, membrane associated (Homo sapiens) (UniProt P14555); assay: Inhibitory activity against contraction of Guinea pig lung tissue induced by PLA2.; type: functional, tissue-based; conditions: Cavia porcellus, target entry is the homologue from another species
T2 sequence (whole entry): T1 sequence (P14555 whole entry)

Cavia porcellus = organism: Cavia porcellus; assay: Effective dose of compound against contraction of Guinea pig lung tissue with arachidonic acid.; type: functional

| Structure (SMILES) | IC50 [1] [nM] | Kb [2] | ED50 (Cavia porcellus) [nM] |
| --- | --- | --- | --- |
| Cc1c(CC(=O)O)c2cc(OCCCC(=O)O)ccc2n1Cc1ccccc1 | 25900 |  |  |
| NC(=O)Cc1cn(Cc2ccccc2)c2ccc(OCCCP(=O)(O)O)cc12 | 203 |  |  |
| CCc1c(CC(N)=O)c2c(OCC(=O)O)cccc2n1Cc1ccccc1 |  |  | >3000 |
| NC(=O)Cc1cn(Cc2ccccc2)c2ccc(OCCCC(=O)O)cc12 | 180 |  |  |
| Cc1c(CC(N)=O)c2c(OCC(=O)O)cccc2n1Cc1ccccc1-c1ccccc1 |  | 140 nM |  |
| CCOC(=O)CCCCOc1ccc2c(CC(N)=O)c(C)n(Cc3ccccc3)c2c1 | 306 | 22500 nM | >30000 |
| Cc1c(CC(N)=O)c2c(OCP(=O)(O)O)cccc2n1Cc1ccccc1 |  |  | >10000 |
| CCc1c(CC(N)=O)c2cc(OCCCP(=O)(OC)OC)ccc2n1Cc1ccccc1 | 266 |  |  |
| Cc1c(CC(N)=O)c2c(OCC(=O)NN)cccc2n1Cc1ccccc1 | 422 | 1950 nM |  |
| Cc1c(CC(N)=O)c2cc(OCCCC(=O)O)ccc2n1Cc1ccccc1 |  |  | >30000 |
| Cc1c(CC(N)=O)c2c(O)cccc2n1Cc1cccc(Cl)c1 | 5880 |  |  |
| Cc1cc(SCCCC(=O)O)cc2c(CC(N)=O)c(C)n(Cc3ccccc3)c12 | 51 |  |  |
| Cc1c(CC(N)=O)c2cc(OCCCP(=O)(O)O)ccc2n1Cc1ccccc1 |  |  | >10000 |
| Cc1c(CC(N)=O)c2c(OCC(=O)O)cccc2n1Cc1ccccc1 |  |  | >10000 |
| Cc1c(CC(=O)NN)c2cc(OCCCP(=O)([O-])[O-])ccc2n1Cc1ccccc1.[Na+].[Na+] | 462 | 1070 nM | >10000 |
| Cc1c(CC(N)=O)c2c(OCC(=O)O)cccc2n1Cc1cccc(Cl)c1 | 52 | 190 nM |  |
| NC(=O)Cc1c(Br)n(Cc2ccccc2)c2cc(Cl)c(OCCCC(=O)O)cc12 |  |  | >10000 |
| Cc1c(CC(N)=O)c2cc(Oc3cccc(C(=O)O)c3)ccc2n1Cc1ccccc1 | > 110000 |  |  |
| CCc1c(CC(N)=O)c2cc(OCCCP(=O)(O)OC)ccc2n1Cc1ccccc1 | 40 | 340 nM | >10000 |
| CCc1c(CC(N)=O)c2cc(OCCCS(=O)(=O)O)ccc2n1Cc1ccccc1 |  |  | >10000 |
| Cc1c(CC(=O)NN)c2cc(OCCCC(=O)O)ccc2n1Cc1ccccc1 | 1020 | 2170 nM | >30000 |
| COC(=O)COc1cccc2c1c(CC(N)=O)c(C)n2Cc1ccccc1 | 1380 |  |  |
| NC(=O)Cc1cn(Cc2ccccc2)c2cccc(OCC(=O)O)c12 | 321 |  |  |
| NC(=O)Cc1cn(Cc2ccccc2)c2ccc(OCP(=O)(O)O)cc12 | 3680 |  |  |
| CCc1c(C(N)=O)c2c(OCC(=O)O)cccc2n1Cc1cccc(Cl)c1 | 16800 |  |  |
| Cc1c(CC(N)=O)c2cc(OCCCP(=O)(O)O)ccc2n1Cc1ccccc1-c1ccccc1 |  |  | >10000 |
| CCc1c(CC(N)=O)c2cc(OCCCP(=O)(O)O)ccc2n1Cc1ccccc1 |  |  | >10000 |
| Cc1cc(OCCCC(=O)O)cc2c(CC(N)=O)c(C)n(Cc3ccccc3)c12 | 75 |  |  |
| CCc1c(CC(N)=O)c2cc(OCCCC(=O)O)ccc2n1Cc1ccccc1 |  |  | >10000 |

Further lines, with some results ahead:

| IC50 [1] [nM] | Kb [2] | Structure (SMILES) | ED50 (Cavia porcellus) [nM] |
| --- | --- | --- | --- |
| 58 |  | CCc1c(CC(N)=O)c2cc(SCCCP(=O)(O)O)ccc2n1Cc1ccccc1 |  |
| 1790 | 8220 nM | Cc1c(CC(N)=O)c2cc(OCC(=O)O)ccc2n1Cc1ccccc1 | >30000 |
|  | 240 nM | CCc1c(CC(N)=O)c2cc(OCCCP(=O)(O)O)ccc2n1Cc1cccc(Cl)c1 |  |
| 3370 |  | Cc1c(CC(N)=O)c2cc(NCCC(=O)O)ccc2n1Cc1ccccc1 |  |
| 527 | 3760 nM | Cc1c(CC(N)=O)c2cc(OCCC(=O)O)ccc2n1Cc1ccccc1 | >30000 |
| 73 | 530 nM | NC(=O)Cc1c(Br)n(Cc2ccccc2)c2ccc(OCCCC(=O)O)cc12 | >10000 |
| 1020 |  | Cc1c(CC(N)=O)c2cc(O)ccc2n1Cc1ccccc1 |  |
| 165 |  | NC(=O)Cc1c(Br)n(Cc2ccccc2)c2ccc(OCCCP(=O)(O)O)cc12 [listing 1 of 3 here] |  |
| 6130 |  | CCCc1c(CC(N)=O)c2cc(OCCCP(=O)(O)O)ccc2n1Cc1ccccc1 |  |
| 155 | 332 nM | Cc1c(CC(N)=O)c2cc(CCCC(=O)O)ccc2n1Cc1ccccc1 |  |
| 33 | 206 nM | CCc1c(CC(N)=O)c2cc(OCCCC(=O)O)c(C)cc2n1Cc1ccccc1 |  |
| 22 |  | CCc1c(CC(N)=O)c2cc(SCCCC(=O)O)c(C)cc2n1Cc1ccccc1 |  |
| 34000 |  | CCCc1c(CC(N)=O)c2cc(O)ccc2n1Cc1ccccc1 |  |
| 33 |  | CCc1c(CC(N)=O)c2cc(SCCCC(=O)O)c(C(C)C)cc2n1Cc1ccccc1 |  |
|  | 440 nM and 1550 nM | NC(=O)Cc1c(Br)n(Cc2ccccc2)c2ccc(OCCCP(=O)(O)O)cc12 [listing 2 of 3 here] |  |
| 44 |  | NC(=O)Cc1c(C2CC2)n(Cc2ccccc2)c2ccc(OCCCC(=O)O)cc12 |  |
| 85 |  | NC(=O)Cc1c(Br)n(Cc2ccccc2)c2cc(Cl)c(O)cc12 |  |
| 162 | 630 nM | CSc1c(CC(N)=O)c2cc(OCCCC(=O)O)ccc2n1Cc1ccccc1 | >10000 |

| IC50 [1] [nM] | Kb [2] | Structure (SMILES) | ED50 (Cavia porcellus) [nM] |
| --- | --- | --- | --- |
| 74 | 900 nM | NC(=O)Cc1c(C2CC2)n(Cc2ccccc2)c2ccc(OCCCP(=O)(O)O)cc12 |  |
| 93 |  | CSc1c(CC(N)=O)c2cc(OCCCC(N)=O)ccc2n1Cc1ccccc1 |  |
| 23 | 124 nM | CCc1c(CC(N)=O)c2cc(SCCCC(=O)O)ccc2n1Cc1ccccc1 |  |
| 5830 |  | Cc1c(CC(N)=O)c2ccc(OCCCC(N)=O)cc2n1Cc1ccccc1 |  |
| 40 | 698 nM | CCc1c(CC(N)=O)c2cc(OCCCP(=O)(O)O)c(C(C)C)cc2n1Cc1ccccc1 |  |
| 1830 |  | Cc1c(CC(N)=O)c2cc(NCCCC(=O)O)ccc2n1Cc1ccccc1 |  |
| 143 |  | C=CCc1c(O)ccc2c1c(CC(N)=O)c(CC)n2Cc1ccccc1 |  |
| 6930 |  | Cc1c(CCC(N)=O)c2cc(OCCCC(=O)O)ccc2n1Cc1ccccc1 |  |
| 15 | 202 nM | CCc1c(CC(N)=O)c2cc(OCCCP(=O)(O)O)c(C)cc2n1Cc1ccccc1 |  |
| 1270 |  | Cc1c(CC(N)=O)c2ccc(OCCCC(=O)NN)cc2n1Cc1ccccc1 |  |
| 8280 |  | Cc1c(CC(N)=O)c2c(O)cccc2n1Cc1ccccc1 |  |
| 555 |  | CCc1c(CC(N)=O)c2cc(OCc3ccccc3C(=O)O)ccc2n1Cc1ccccc1 |  |
| 1150 | 8800 nM | Cc1c(CC(N)=O)c2cc(OCCCCC(=O)O)ccc2n1Cc1ccccc1 | >30000 |
| 147 | 720 nM | Cc1c(CC(N)=O)c2cc(OCc3ccccc3C(=O)O)ccc2n1Cc1ccccc1 | >10000 |
| 33 |  | NC(=O)Cc1c(Br)n(Cc2ccccc2)c2ccc(OCCCP(=O)(O)O)cc12 [listing 3 of 3 here] | >10000 |
| 59 |  | CCc1c(CC(N)=O)c2cc(SCCC(=O)O)ccc2n1Cc1ccccc1 |  |
| 2450 |  | Cc1c(CC(N)=O)c2cc(OCCCC3=NNNN3)ccc2n1Cc1ccccc1 |  |
| 77 | 610 nM | NC(=O)Cc1c(Cl)n(Cc2ccccc2)c2ccc(OCCCC(=O)O)cc12 | >30000 |
